In PubChem BioAssay (NCI):
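All cell lines were grown in 96-well plates and treated with compound for 48 hours. The concentration for full growth arrest is given as TGI.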

Experiments:
Assay in all cases: DTP human tumour cell line panel, 48 h
MDA-MB-435 = test system: MDA-MB-435
KM12 colon = test system: KM12 colon
COLO 205 colon = test system: COLO 205 colon
NCI-H23 lung = test system: NCI-H23 lung
SF-539 CNS = test system: SF-539 CNS
SR leukemia = test system: SR leukemia
CAKI-1 renal = test system: CAKI-1 renal
786-0 renal = test system: 786-0 renal
NCI-H460 lung = test system: NCI-H460 lung
A498 renal = test system: A498 renal
HS 578T breast = test system: HS 578T breast
UACC-257 melanoma = test system: UACC-257 melanoma
SK-OV-3 ovarian = test system: SK-OV-3 ovarian
OVCAR-4 ovarian = test system: OVCAR-4 ovarian
RXF 393 renal = test system: RXF 393 renal
SK-MEL-28 melanoma = test system: SK-MEL-28 melanoma
MCF7 breast = test system: MCF7 breast
BT-549 breast = test system: BT-549 breast
HCC-2998 colon = test system: HCC-2998 colon
SF-295 CNS = test system: SF-295 CNS

Row | SMILES | TGI (MDA-MB-435) [µM] | TGI (KM12 colon) [µM] | TGI (COLO 205 colon) [µM] | TGI (NCI-H23 lung) [µM] | TGI (SF-539 CNS) [µM] | TGI (SR leukemia) [µM] | TGI (CAKI-1 renal) [µM] | TGI (786-0 renal) [µM] | TGI (NCI-H460 lung) [µM] | TGI (A498 renal) [µM] | TGI (HS 578T breast) [µM] | TGI (UACC-257 melanoma) [µM] | TGI (SK-OV-3 ovarian) [µM] | TGI (OVCAR-4 ovarian) [µM] | TGI (RXF 393 renal) [µM] | TGI (SK-MEL-28 melanoma) [µM] | TGI (MCF7 breast) [µM] | TGI (BT-549 breast) [µM] | TGI (HCC-2998 colon) [µM] | TGI (SF-295 CNS) [µM]
1 | CCOC(=O)c1ccc(NC(=O)O/N=C(/Cl)C(C)C)cc1 | 32.5 | 35.9 | 5.77 | 47.7 | 34.6 | 11.2 | 8.87 | 16.5 | 38.3 | 28.4 | 94.8 | 32 | 33.4 | 28.4 | 30.6 | 31 | 21.3 | 32.7 | 33.2 | 34.8
2 | CC(C)(Cl)C(Br)CCC(CBr)=C(Cl)CCl (mixture of isomers) | 3.46 | 4.1 | 1.11 | 5.42 | 4.07 | 2.55 | 5.67 | 3.04 | > 10 | > 5.56 | > 10 | 4.89 | > 8.72 | > 5.87 | 4.97 | 4.41 | 4.79 | 4.14 | > 8.02 | > 10
3 | O=C(/C=c1\oc(=O)/c(=C/C(=O)c2ccc(Cl)cc2)oc1=O)c1ccc(Cl)cc1 | > 100 | > 100 | > 100 | > 100 | > 100 | > 100 | > 100 | > 100 | > 100 | > 100 | > 100 | > 100 | > 100 | > 100 | > 100 | > 100 | > 100 | 91 | > 100 | > 100
4 | C=CCOc1ccc(C2(c3ccc(OCC=C)cc3)C(=O)Nc3ccccc32)cc1 | > 10 | > 10 | > 10 | > 10 | > 10 | > 10 | > 10 | > 10 | > 10 | > 10 | 6.38 | > 10 | > 10 | > 10 | > 10 | > 10 | > 10 | > 10 | > 10 | > 10
5 | COc1ccc2c(c1)CCC(CN1CCN(CCOC(c3ccc(F)cc3)c3ccc(F)cc3)CC1)C2O (stereo not given) | 34.6 | 63.2 | 20.2 | 28.1 | 51.6 | > 100 | 32 | 25.2 | 44.9 | 19.9 | 38.7 | 28.1 | 31.5 | 32.9 | 26.3 | 30 | 39.7 | 27.5 | 9.33 | 34.5
